This passage reports Dmax and DC50 results from patent publication US12624044B2, “SMARCA degraders and uses thereof” (Kymera Therapeutics, Inc., priority 2019, dated 2026).

Common to all, as to format: cell-based
The target of assay [1] is T1, SMARCA2 (Homo sapiens, UniProt P51531). The assay is described as follows: MSD SMARCA2 degradation in A549 cell line. The following applies: 24 h; for Dmax: A549, A549 cells; for DC50: A549 cells, read-out: SMARCA2 MSD A549 degradation 24 h: Average external-Abs DC50. The essentials: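 SMARCA2 remaining was measured by MSD electrochemiluminescence on RIPA lysates (anti-SMARCA2 plus SULFO-TAG anti-rabbit). Prior exposure: 24 h of A549 cells to a 10-point, 3-fold dilution series topping at 1000 nM final; Dmax % given as graded codes.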

For assay [2], the target named is T1, SMARCA2. Nature of the assay: SMARCA2 Western blot MV4-11 degradation. The following applies: 24 h; for Dmax: MV4-11, MV4-11 cells, read-out: SMARCA2 WB MV411 degradation 24 h: Average Dmax %; for DC50: MV4-11 cells, read-out: SMARCA2 WB MV411 degradation 24 h: Average external-Abs DC50. As to the method: Cells were seeded into 6-well plates (MV4-11: 4×10^6 cells/well/1 ml) and 1 ml of 2× compound solution was added into the well to make the final concentration and the plates were mixed well and incubated for 24 hours (No cytotoxicity was observed). The cell were collected with media and spun at 3000 rpm for 5 minutes. The supernatant was aspirated and the well and the cells were washed with cold PBS once and combined for centrifugation again; the supernatant aspirated again. 200 ul pre-chilled RIPAlysis buffer (Boston BioProducts BP-115D) with protease/phosphatase inhibitor (Roche 05892791001/Roche 04906837001) was directly added into the tube to lyze the cells for 20 minutes on ice. The cell lysate were collected into EP tubes and spun at 13000 rpm for 20 minutes and 72 ul supernatant was transferred to a fresh EP tube containing 18 ul of 5× loading buffer (Beyotime Bio P0015) to make the loading samples. The samples were heated to 100° C. for 10 minutes and cooled to RT and microcentrifuged. 20 ul of samples were loaded onto SDS-PAGE gel (Novex, WG1402BOX) and the gel was run at 80 V for 20 minutes and 120 V for 1.5 hours. The samples were electrotransfer to a NC membrane using wet-transfer method with 250 mA for 2.5 hours. The membrane was blocked with LICOR blocking buffer (LI-COR, 927-50000) for 1 hour. The membrane was washed three times with TBST (CST #9997S), 5 minutes each. Incubation was performed with primary antibody prepared in blocking buffer with 0.1% Tween-20 (Solarbio, P8220) at 4° C. overnight (Anti-SMARCA2/BRM antibody (ab15597) 1:500; Anti-BRG1 antibody [EPR3912] (ab108318) 1:1000; Rabbit anti-Baf180 antibody [EPR15860] (Abcam, ab196022) 1:1000; mouse anti-beta-Actin (8H10D10) (CST #3700) 1:10000). The membrane was washed three times with TBST, 5 minutes each. Incubation with secondary antibody was performed for 1 hour at RT (anti-rabbit IgG (Licor, 926-32211) 1:5000; anti-mouse IgG (LI-COR, 926-68070) 1:5000). The membrane was washed three times with TBST, 5 minutes each and lastly the LiCOR was read.
The letter codes for the percentage of SMARCA degradation after 24 hours (Dmax %) include: A (>90% degradation), B (>70-90% degradation), C (50-70% degradation), and D (<50% degradation).
In general terms: A western blot detects proteins with antibodies after separation by electrophoresis.

For the next assay, the target named is T2, SMARCA4 (Homo sapiens, UniProt P51532).
T2 construct: SMARCA2 and SMARCA4 protein degradation in MV4-11 cells; endogenous in cells; host or cells: MV4-11
Nature of the assay: SMARCA4 Western blot MV4-11 degradation. The following applies: 24 h; for Dmax: MV4-11, MV4-11 cells, read-out: SMARCA4 WB MV411 degradation 24 h: Average Dmax %; for DC50: MV4-11 cells, read-out: SMARCA4 WB MV411 degradation 24 h: Average external-Abs DC50. The essentials:
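MV4-11 cells treated with compound for 24 h, lysed in RIPA with protease/phosphatase inhibitors, and SMARCA2 and SMARCA4 (BRG1) levels assessed by Western blot with β-actin loading control and LI-COR fluorescent read-out. Maximal degradation (Dmax %) after 24 h binned into letter codes.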

T1 sequence (P51531 whole entry): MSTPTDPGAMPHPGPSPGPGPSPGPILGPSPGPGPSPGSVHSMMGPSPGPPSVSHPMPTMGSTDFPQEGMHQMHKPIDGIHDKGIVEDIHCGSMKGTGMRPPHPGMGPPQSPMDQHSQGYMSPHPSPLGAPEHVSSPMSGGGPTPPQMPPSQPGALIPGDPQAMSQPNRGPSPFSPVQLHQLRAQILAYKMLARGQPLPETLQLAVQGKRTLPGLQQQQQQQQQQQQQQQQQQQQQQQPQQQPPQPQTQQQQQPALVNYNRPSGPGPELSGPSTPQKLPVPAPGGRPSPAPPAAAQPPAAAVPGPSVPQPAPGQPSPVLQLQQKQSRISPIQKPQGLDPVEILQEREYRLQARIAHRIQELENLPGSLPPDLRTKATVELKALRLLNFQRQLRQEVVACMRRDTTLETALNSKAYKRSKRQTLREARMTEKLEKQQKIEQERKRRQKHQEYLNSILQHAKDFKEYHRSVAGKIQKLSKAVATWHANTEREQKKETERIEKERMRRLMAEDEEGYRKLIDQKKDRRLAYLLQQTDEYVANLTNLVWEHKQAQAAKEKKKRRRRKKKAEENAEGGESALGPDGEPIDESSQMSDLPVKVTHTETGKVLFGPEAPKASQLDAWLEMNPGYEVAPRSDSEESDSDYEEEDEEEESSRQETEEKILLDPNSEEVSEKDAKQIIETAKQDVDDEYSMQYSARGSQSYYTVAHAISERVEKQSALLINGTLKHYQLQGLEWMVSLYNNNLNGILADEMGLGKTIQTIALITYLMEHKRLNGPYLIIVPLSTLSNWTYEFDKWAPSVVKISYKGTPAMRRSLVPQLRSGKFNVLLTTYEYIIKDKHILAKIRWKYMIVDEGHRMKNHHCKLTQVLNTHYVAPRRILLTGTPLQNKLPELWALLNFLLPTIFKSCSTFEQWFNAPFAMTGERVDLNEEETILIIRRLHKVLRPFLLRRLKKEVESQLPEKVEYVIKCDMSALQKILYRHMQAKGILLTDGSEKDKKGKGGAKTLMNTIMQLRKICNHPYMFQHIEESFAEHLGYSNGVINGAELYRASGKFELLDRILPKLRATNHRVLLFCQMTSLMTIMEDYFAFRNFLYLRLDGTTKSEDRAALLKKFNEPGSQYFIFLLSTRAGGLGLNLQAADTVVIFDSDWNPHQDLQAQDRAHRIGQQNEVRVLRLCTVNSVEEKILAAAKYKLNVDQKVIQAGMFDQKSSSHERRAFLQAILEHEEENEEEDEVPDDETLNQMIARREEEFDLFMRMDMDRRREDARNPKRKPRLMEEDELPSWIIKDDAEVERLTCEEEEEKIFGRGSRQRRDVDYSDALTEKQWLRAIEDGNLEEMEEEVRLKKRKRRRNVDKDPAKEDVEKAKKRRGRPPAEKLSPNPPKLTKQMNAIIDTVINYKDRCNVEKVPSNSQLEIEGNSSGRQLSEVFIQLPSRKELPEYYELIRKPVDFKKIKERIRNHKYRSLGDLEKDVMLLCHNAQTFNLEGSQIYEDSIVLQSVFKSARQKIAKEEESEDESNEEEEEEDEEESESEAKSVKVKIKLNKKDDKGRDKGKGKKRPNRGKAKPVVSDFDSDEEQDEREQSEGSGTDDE
T2 sequence (P51532 whole entry): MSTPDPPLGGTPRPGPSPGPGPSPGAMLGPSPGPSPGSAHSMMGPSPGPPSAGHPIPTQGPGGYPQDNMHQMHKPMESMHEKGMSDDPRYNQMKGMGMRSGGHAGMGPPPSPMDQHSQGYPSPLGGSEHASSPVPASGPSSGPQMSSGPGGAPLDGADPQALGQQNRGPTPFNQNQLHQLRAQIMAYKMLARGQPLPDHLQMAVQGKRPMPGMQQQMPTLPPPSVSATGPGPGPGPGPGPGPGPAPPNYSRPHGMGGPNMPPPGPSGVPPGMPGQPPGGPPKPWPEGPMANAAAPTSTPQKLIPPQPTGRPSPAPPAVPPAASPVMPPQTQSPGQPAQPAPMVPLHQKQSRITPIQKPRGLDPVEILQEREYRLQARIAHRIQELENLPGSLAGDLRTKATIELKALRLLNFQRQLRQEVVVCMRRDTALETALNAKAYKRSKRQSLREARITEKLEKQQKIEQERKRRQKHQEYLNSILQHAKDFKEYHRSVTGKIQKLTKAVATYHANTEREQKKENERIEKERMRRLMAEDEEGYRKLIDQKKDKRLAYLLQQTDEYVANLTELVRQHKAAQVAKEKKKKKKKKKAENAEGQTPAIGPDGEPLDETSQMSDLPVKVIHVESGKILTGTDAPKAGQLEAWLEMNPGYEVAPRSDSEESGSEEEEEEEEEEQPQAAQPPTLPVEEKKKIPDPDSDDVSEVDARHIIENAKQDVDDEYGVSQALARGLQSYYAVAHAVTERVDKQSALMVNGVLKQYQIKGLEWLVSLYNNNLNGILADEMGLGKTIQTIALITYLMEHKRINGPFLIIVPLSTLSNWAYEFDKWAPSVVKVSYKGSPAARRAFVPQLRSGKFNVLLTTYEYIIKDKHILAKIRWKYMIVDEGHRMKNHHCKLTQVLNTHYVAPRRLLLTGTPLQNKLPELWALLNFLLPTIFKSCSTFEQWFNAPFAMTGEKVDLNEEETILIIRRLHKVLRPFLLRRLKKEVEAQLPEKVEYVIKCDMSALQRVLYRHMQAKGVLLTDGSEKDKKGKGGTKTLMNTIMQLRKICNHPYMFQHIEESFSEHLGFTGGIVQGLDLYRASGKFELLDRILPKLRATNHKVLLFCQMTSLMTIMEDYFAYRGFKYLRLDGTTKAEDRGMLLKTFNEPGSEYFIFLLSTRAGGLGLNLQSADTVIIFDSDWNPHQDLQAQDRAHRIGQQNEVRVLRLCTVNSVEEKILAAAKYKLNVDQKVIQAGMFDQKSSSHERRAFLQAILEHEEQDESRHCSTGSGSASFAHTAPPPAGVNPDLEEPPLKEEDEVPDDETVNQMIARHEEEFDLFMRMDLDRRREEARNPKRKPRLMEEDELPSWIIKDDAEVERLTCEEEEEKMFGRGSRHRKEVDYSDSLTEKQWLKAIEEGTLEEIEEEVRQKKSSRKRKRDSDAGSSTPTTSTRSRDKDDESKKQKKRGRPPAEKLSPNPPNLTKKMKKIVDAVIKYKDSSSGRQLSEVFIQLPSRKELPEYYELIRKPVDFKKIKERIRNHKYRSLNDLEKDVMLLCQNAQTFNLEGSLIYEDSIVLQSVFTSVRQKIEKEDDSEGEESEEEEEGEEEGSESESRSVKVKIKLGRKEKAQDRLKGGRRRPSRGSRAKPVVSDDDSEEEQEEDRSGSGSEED

Broadly, the Dmax is the greatest extent of degradation seen. For the compound `Cc1ncsc1-c1ccc(CNC(=O)[C@@H]2C[C@@H](O)CN2C(=O)[C@@H](NC(=O)CN2CCN([C@H]3CC[C@H](c4cnc(N5C6CCC5CN(c5cc(-c7ccccc7O)nnc5N)C6)nc4)CC3)CC2)C(C)(C)C)cc1` (single isomer, unassigned) [I-446, (2S,4R)-1-((2S)-2-(2-(4-((1r,4S)-4-(2-(3-(3-amino-6-(2-hydroxyphenyl)pyridazin-4-yl)-3,8-diazabicyclo[3.2.1]octan-8-yl)pyrimidin-5-yl)cyclohexyl)piperazin-1-yl)acetamido)-3,3-dimethylbutanoyl)-4-hydroxy-N-(4-(4-methylthiazol-5-yl)benzyl)pyrrolidine-2-carboxamide], the Dmax at SMARCA2 [1], on SMARCA2 [2] and on SMARCA4 was greater than 90% each time.
As usually defined, the DC50 is the concentration at which degradation of the target reaches its halfway point. Consider `Cc1ncsc1-c1ccc(CNC(=O)[C@@H]2C[C@@H](O)CN2C(=O)[C@@H](NC(=O)CN2CCN([C@H]3CC[C@H](c4cnc(N5C6CCC5CN(c5cc(-c7ccccc7O)nnc5N)C6)nc4)CC3)CC2)C(C)(C)C)cc1` (single isomer, unassigned) [I-446], for which the DC50 on SMARCA2 [1], on SMARCA2 [2] and at SMARCA4 was less than 100 nM each time.
As for `Cn1c(=O)n(C2CCC(=O)NC2=O)c2ccc(C3CC4(C3)CC(N3CCC(c5cnc(N6C7CCC6CN(c6cc(-c8ccccc8O)nnc6N)C7)nc5)CC3)C4)cc21` (single isomer, unassigned) [I-536 (P1), 3-(5-(6-(4-(2-(3-(3-amino-6-(2-hydroxyphenyl)pyridazin-4-yl)-3,8-diazabicyclo[3.2.1]octan-8-yl)pyrimidin-5-yl)piperidin-1-yl)spiro[3.3]heptan-2-yl)-3-methyl-2-oxo-2,3-dihydro-1H-benzo[d]imidazol-1-yl)piperidine-2,6-dione], the DC50 at SMARCA2 [1], on SMARCA2 [2] and on SMARCA4 was less than 100 nM each time.
`Cn1c(=O)n(C2CCC(=O)NC2=O)c2ccc([C@H]3CC[C@@H](N4CCC(c5cnc(N6C7CCC6CN(c6cc(-c8ccccc8O)nnc6N)C7)nc5)CC4)CC3)cc21` (some centres unmarked) [I-277]: the Dmax at SMARCA2 [1], at SMARCA2 [2] and on SMARCA4 was greater than 90% in each case. Further, the DC50 on SMARCA2 [1], at SMARCA2 [2] and at SMARCA4 was less than 100 nM throughout.
On to `Cn1c(=O)n(C2CCC(=O)NC2=O)c2ccc([C@H]3CC[C@H](N4CCC(c5cnc(N6C7CCC6CN(c6cc(-c8ccccc8O)nnc6N)C7)nc5)CC4)CC3)cc21` (some centres unmarked) [I-291], for which the Dmax on SMARCA2 [1] and on SMARCA4 was greater than 90% throughout. The DC50 on SMARCA2 [1], at SMARCA2 [2] and on SMARCA4 was less than 100 nM in each case.
With `Cn1c(=O)n(C2CCC(=O)NC2=O)c2cccc(C3CCC(N4CCC(n5cc(-c6cc(-c7ccccc7O)nnc6N)cn5)CC4)CC3)c21` (centres unmarked) [I-321], the Dmax on SMARCA2 [1], on SMARCA2 [2] and on SMARCA4 was greater than 90% throughout. Besides, the DC50 at SMARCA2 [1], at SMARCA2 [2] and at SMARCA4 was less than 100 nM each time.
In the case of `Cc1ncsc1-c1ccc(CNC(=O)[C@@H]2C[C@@H](O)CN2C(=O)[C@@H](NC(=O)C2CCC(CN3CCC(n4cc(-c5cc(-c6ccccc6O)nnc5N)cn4)CC3)CC2)C(C)(C)C)cc1` (some centres unmarked) [I-327], the figures for the Dmax at SMARCA2 [1], on SMARCA2 [2] and on SMARCA4 were greater than 90%, greater than 90% and less than 50%, respectively. Besides, the DC50 at SMARCA2 [1] was 100 to 500 nM; at SMARCA2 [2], less than 100 nM; at SMARCA4, greater than 1000 nM.
On to `Cc1ncsc1-c1ccc(CNC(=O)[C@@H]2C[C@@H](O)CN2C(=O)[C@@H](NC(=O)[C@H]2C[C@@H](N3CCC(c4cnc(N5C6CCC5CN(c5cc(-c7ccccc7O)nnc5N)C6)nc4)CC3)C2)C(C)(C)C)cc1` [I-349], for which the Dmax at SMARCA2 [1] was greater than 90%; on SMARCA2 [2], 70 to 90%; at SMARCA4 it was less than 50%. For the same compound, the DC50 on SMARCA2 [1] was 100 to 500 nM; on SMARCA2 [2], less than 100 nM; on SMARCA4, 501 to 1000 nM.
Consider `Cc1ncsc1-c1ccc(CNC(=O)[C@@H]2C[C@@H](O)CN2C(=O)[C@@H](NC(=O)CN2CCN(C3CCC(c4cnc(N5C6CCC5CN(c5cc(-c7ccccc7O)nnc5N)C6)nc4)CC3)CC2)C(C)(C)C)cc1` (stereo partly drawn) [I-354, (2S,4R)-1-((2S)-2-(2-(4-(4-(2-(3-(3-amino-6-(2-hydroxyphenyl)pyridazin-4-yl)-3,8-diazabicyclo[3.2.1]octan-8-yl)pyrimidin-5-yl)cyclohexyl)piperazin-1-yl)acetamido)-3,3-dimethylbutanoyl)-4-hydroxy-N-(4-(4-methylthiazol-5-yl)benzyl)pyrrolidine-2-carboxamide], for which the Dmax on SMARCA2 [1], at SMARCA2 [2] and at SMARCA4 was greater than 90% each time. For the same compound, the DC50 at SMARCA2 [1], on SMARCA2 [2] and on SMARCA4 was less than 100 nM in each case.
Regarding `Cc1ncsc1-c1ccc(CNC(=O)[C@@H]2C[C@@H](O)CN2C(=O)[C@@H](NC(=O)[C@H]2CC[C@H](Cc3cnc(N4C5CCC4CN(c4cc(-c6ccccc6O)nnc4N)C5)nc3)CC2)C(C)(C)C)cc1` [I-366, (2S,4R)-1-((2S)-2-((1r,4S)-4-((2-(3-(3-amino-6-(2-hydroxyphenyl)pyridazin-4-yl)-3,8-diazabicyclo[3.2.1]octan-8-yl)pyrimidin-5-yl)methyl)cyclohexane-1-carboxamido)-3,3-dimethylbutanoyl)-4-hydroxy-N-(4-(4-methylthiazol-5-yl)benzyl) pyrrolidine-2-carboxamide], the greatest degradation seen (Dmax) at SMARCA2 [1], at SMARCA2 [2] and on SMARCA4 was greater than 90% throughout. In addition, the DC50 on SMARCA2 [1], on SMARCA2 [2] and on SMARCA4 was less than 100 nM each time.
With `Cc1ncsc1-c1ccc(CNC(=O)[C@@H]2C[C@@H](O)CN2C(=O)[C@@H](NC(=O)[C@H]2CC3(C2)C[C@H](c2cnc(N4C5CCC4CN(c4cc(-c6ccccc6O)nnc4N)C5)nc2)C3)C(C)(C)C)cc1` (some centres unmarked) [I-368], the maximal degradation (Dmax) at SMARCA2 [1], at SMARCA2 [2] and on SMARCA4 was greater than 90% throughout. Further, the DC50 at SMARCA2 [1], on SMARCA2 [2] and at SMARCA4 was less than 100 nM each time.
With `Cc1ncsc1-c1ccc(CNC(=O)[C@@H]2C[C@@H](O)CN2C(=O)[C@@H](NC(=O)[C@H]2C[C@@]3(C2)C[C@H](c2cnc(N4C5CCC4CN(c4cc(-c6ccccc6O)nnc4N)C5)nc2)C3)C(C)(C)C)cc1` (some centres unmarked) [I-369], the 50% degradation concentration (DC50) at SMARCA2 [1], on SMARCA2 [2] and at SMARCA4 was less than 100 nM in each case.
As to `Cc1ncsc1-c1ccc(CNC(=O)[C@@H]2C[C@@H](O)CN2C(=O)[C@@H](NC(=O)[C@H]2CC[C@H](CN3CCC(c4cnc(N5C6CCC5CN(c5cc(-c7ccccc7O)nnc5N)C6)nc4)CC3)CC2)C(C)(C)C)cc1` [I-375], the Dmax on SMARCA2 [1] is greater than 90%; on SMARCA2 [2] it was greater than 90%; at SMARCA4 it was 50 to 70%. Moreover, the DC50 at SMARCA2 [1] was 100 to 500 nM; on SMARCA2 [2] it was less than 100 nM; on SMARCA4 it was 501 to 1000 nM.
For the compound `Cc1ncsc1-c1ccc(CNC(=O)[C@@H]2C[C@@H](O)CN2C(=O)[C@@H](NC(=O)[C@H]2CC[C@H](CCCCCN3CCC(Cn4cc(-c5cc(-c6ccccc6O)nnc5N)cn4)CC3)CC2)C(C)(C)C)cc1` [I-378], the Dmax on SMARCA2 [1], at SMARCA2 [2] and on SMARCA4 was greater than 90% in each case. Further, the DC50 on SMARCA2 [1] is 100 to 500 nM; on SMARCA2 [2], less than 100 nM; at SMARCA4, less than 100 nM.
